Publication PMC7318308, “A Novel Synthetic Dual Agonistic Liposomal TLR4/7 Adjuvant Promotes Broad Immune Responses in an Influenza Vaccine With Minimal Reactogenicity” (Frontiers in Immunology, 2020)
Entries after “also recorded” stand apart in the source; their conditions may differ. Read-outs that look alike come from different tables or passages of the source.

Columns and labels:
mouse TLR4 = molecular target: T1, mouse TLR4 (Mus musculus, UniProt Q9JHF9+Q9QUK6); assay: TLR4/NF-κB reporter cell assay (SEAP), HEK-Blue mTLR4; type: cell-based; details: for EC50: 20 h, 2-fold serial dilutions from 10 μM, NF-κB SEAP, read-out: EC50 on mTLR4 reporter cells; for murine TLR4 agonistic activity (in words): AUC normalized to 2B110 as 100%, Figure 1C
T1 construct: host or cells: HEK-Blue mTLR4 (HEK293-derived NF-κB/SEAP reporter cells)
T1 sequence (Q9QUK6 26-835): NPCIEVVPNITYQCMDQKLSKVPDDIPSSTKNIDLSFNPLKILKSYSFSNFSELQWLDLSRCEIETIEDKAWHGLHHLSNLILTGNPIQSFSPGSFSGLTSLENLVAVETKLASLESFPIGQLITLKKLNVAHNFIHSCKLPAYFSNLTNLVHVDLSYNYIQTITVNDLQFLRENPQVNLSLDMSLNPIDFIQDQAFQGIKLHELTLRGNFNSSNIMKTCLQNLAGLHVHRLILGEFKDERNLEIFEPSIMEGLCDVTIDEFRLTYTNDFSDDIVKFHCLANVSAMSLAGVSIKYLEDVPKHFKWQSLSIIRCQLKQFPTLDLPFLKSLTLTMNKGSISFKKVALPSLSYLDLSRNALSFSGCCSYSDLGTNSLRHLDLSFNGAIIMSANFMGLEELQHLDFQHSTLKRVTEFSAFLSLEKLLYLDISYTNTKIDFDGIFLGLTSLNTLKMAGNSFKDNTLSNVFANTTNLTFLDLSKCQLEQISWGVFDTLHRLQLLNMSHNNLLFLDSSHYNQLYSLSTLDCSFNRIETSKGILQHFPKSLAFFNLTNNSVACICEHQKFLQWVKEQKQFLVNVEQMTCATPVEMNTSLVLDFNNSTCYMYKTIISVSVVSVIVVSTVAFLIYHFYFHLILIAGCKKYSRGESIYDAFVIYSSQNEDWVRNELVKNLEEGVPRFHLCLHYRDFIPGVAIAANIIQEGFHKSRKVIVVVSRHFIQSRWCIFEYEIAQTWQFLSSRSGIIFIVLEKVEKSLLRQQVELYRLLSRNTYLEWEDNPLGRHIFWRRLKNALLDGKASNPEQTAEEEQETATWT
T1 sequence (Q9JHF9 19-160): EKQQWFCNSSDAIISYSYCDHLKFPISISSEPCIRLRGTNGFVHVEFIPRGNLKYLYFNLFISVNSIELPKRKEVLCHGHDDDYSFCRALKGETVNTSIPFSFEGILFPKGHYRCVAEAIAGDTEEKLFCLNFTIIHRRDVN
Procedure: (§1) Figure 1 Structure-activity relationship studies in TLR4 agonistic pyrimidoindoles. (A) Syntheses of C8-alkynyl and C8-alkyl analogs. (B) Syntheses of C8-aryl analogs. (C) Scatter plot of hTLR4 and mTLR4 agonistic activity in TLR4-NF-κB HEK reporter cells (HEK-Blue™ hTLR4 and HEK-Blue™ mTLR4, respectively). NF-κB inducible NF-κB SEAP levels in culture supernatants were measured according to manufacturer's protocol. The TLR4 agonistic potency was evaluated as area under the curve (AUC) calculated for dose response curve using 2-fold serial dilutions from 10 μM, and normalized to the AUC for 2B110 as 100% on both axes. […] The color of each point is based on cell viability in TLR4-NF-κB reporter cells for compounds evaluated at 5 μM concentration. Viability data was normalized to vehicle control (Vehicle OD570−650 = 0.58 ± 0.01). (D) Structures of the lead compounds with differences at C8 substitution highlighted in blue.
(§2) Titration curves of 1Z105 and derivatives were used to assess their potency in stimulating human and mouse TLR4 response using HEK NF-κB reporter cells (HEK-Blue™ hTLR4 and mTLR4, respectively). The areas under the curve for dose response curves relative to vehicle (0.5% DMSO) were normalized to the greatest activity as 100% of 2B110 for both assays (Figure 1C). The compounds were also tested for in vitro toxicity by MTT assay (Figure 1C, Supplementary Figure 1).
(§3) TLR4/NF-κB activation was assessed using HEK-Blue™ hTLR4 and HEK-Blue™ mTLR4 (InvivoGen). The cells were treated with 1Z105 and 2B182C (2-fold serial dilutions starting from 10 μM) for 20 h. NF-κB inducible secreted embryonic alkaline phosphatase (SEAP) protein in the culture supernatant was measured according to manufacturer's protocol. To evaluate cell viability, 0.5 mg/mL 3-[4,5-dimethylthiazol-2-yl]-2,5-dipheyl tetrazolium bromide (MTT, Thermo Fisher Scientific) solution was added to each well and incubated at 37°C. Six hours later, formazan crystals were lysed with lysis buffer (15% SDS and 0.12% 12 N HCl) and the absorbance was measured at 570 nm using 650 nm as a reference with a plate reader (Tecan, Switzerland).

[1] = test system: HEK-Blue hTLR4 reporter cells; assay: MTT cell viability, human TLR4 reporter cells; type: cell-based; details: dose response, % viability normalized to vehicle (0.5% DMSO)
Procedure: as §3
(§4) Human TLR4 reporter cells Murine TLR4 reporter cells
(§5) [Compound] 1 μM 10 [Compound] 1 μM 10
(§6) Supplementary Figure 1. Dose response curves for cell viability (toxicity) of lead compounds in human and murine TLR4-NF-κB reporter cells. Cellular toxicity evaluated by MTT assay is presented as % viability normalized to vehicle (0.5% DMSO) as 100%. While 1Z105 had minimal toxicity in both hTLR4 and mTLR4 reporter cells (HEK-BlueTM hTLR4 and HEK-BlueTM mTLR4, […]
(§7) (also on this page, place not known: %Relative (Normalized 100%) 101101 viability vehicle as to)

mBMDCs [2] = assay: IL-12 and IL-6 production in mouse BMDCs (ELISA); type: cell-based
Procedure: (§8) Human PBMC (10^6 cells/mL) were treated with 5 μM 1Z105 and 2B182C overnight and the culture supernatant assessed for human IL-8 by ELISA. Mouse BMDCs (10^6 cells/mL) were incubated with serially diluted compounds (2-fold dilution from 5 μM). 0.5% DMSO was used as vehicle. IL-12 and IL-6 levels in the supernatant were measured by ELISA. ELISA was performed as previously described ([57]). Reagents and dilution factors of antibodies are described in Supplementary Table 1.

[3] = test system: HEK-Blue mTLR4 reporter cells; assay: MTT cell viability, murine TLR4 reporter cells; type: cell-based; details: dose response, % viability normalized to vehicle (0.5% DMSO)
Procedure: as §3, §4, §5, §6, §7

[4] = test system: IIAV A/California/04/2009 (H1N1)pdm09 HA and NA; assay: Prime-boost vaccination model with IIAV, serum anti-HA/anti-NA IgG ELISA; type: in vivo, BALB/c mice; details: i.m. IIAV 10 μg + adjuvant days 0 and 21, sera day 28; 1V270 1 nmol, TLR4 ligand 200 nmol/injection
hPBMCs = assay: IL-8 release from human PBMC (ELISA); type: cell-based; details: 5 μM, overnight; compared to 1Z105
Procedure: as §8

human TLR4 = molecular target: T2, human TLR4 (Homo sapiens, UniProt O00206+Q9Y6Y9); assay: TLR4/NF-κB reporter cell assay (SEAP), HEK-Blue hTLR4; type: cell-based; details: for human TLR4 agonistic activity (in words): AUC normalized to 2B110 as 100%, Figure 1C
T2 construct: host or cells: HEK-Blue hTLR4 (HEK293-derived NF-κB/SEAP reporter cells)
T2 sequence (O00206 24-839): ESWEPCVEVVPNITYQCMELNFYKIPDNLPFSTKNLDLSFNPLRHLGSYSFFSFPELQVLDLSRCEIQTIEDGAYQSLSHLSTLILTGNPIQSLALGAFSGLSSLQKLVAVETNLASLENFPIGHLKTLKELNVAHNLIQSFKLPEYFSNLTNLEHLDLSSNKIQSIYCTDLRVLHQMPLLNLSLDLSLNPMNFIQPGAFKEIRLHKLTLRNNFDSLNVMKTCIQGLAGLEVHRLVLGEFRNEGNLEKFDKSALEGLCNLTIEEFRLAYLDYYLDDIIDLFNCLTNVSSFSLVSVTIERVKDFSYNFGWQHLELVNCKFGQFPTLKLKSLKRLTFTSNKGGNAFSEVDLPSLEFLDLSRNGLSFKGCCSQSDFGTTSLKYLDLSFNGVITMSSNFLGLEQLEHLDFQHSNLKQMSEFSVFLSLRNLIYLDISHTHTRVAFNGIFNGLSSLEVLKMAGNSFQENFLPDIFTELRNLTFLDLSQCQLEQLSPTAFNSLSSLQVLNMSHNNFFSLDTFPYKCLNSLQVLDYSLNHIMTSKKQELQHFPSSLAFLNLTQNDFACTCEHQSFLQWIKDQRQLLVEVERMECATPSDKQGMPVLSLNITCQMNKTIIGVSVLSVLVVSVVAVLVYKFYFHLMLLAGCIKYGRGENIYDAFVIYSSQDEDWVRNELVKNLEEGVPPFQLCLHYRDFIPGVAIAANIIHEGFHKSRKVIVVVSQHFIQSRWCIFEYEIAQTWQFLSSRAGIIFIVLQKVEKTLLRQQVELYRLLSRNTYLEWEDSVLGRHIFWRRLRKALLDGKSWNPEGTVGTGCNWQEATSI
T2 sequence (Q9Y6Y9 17-160 limits assumed): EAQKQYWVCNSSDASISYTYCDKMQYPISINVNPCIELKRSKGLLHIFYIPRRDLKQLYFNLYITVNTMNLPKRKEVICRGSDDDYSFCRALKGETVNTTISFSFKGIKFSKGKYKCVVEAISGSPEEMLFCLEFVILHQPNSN
Procedure: as §1, §2, §3

[5] = test system: TLR4-NF-κB reporter cells; assay: MTT cell viability in TLR4-NF-κB reporter cells; type: cell-based; details: 10 µM, MTT, Supplementary Figure 1
Procedure: as §1, §3

mBMDCs [6] = assay: CD40 and CD86 expression on BMDCs (flow cytometry); type: cell-based, mouse; details: 1 μM, 20 h; compared to 1Z105
Procedure: Detailed information for reagents used in flow cytometry analysis are shown in Supplementary Table 2. For co-stimulatory molecules on mBMDCs, mBMDCs (10^6 cells/mL) were incubated with 1 μM 1Z105 and 2B182C for 20 h. 0.5% DMSO was uses as vehicle. After removing the supernatant, cells were washed with the stain buffer (BD Biosciences, San Diego, CA) and incubated with anti-mouse CD16/32 antibody for blocking FcR. Cells were then stained with an antibody cocktail with anti-CD40 and anti-CD86 antibodies for 20–30 min at 4°C. For analysis of lymphocytes harvested from draining lymph nodes, two antibody cocktails were prepared; (1) anti-CD3, anti-CD4, anti-PD-1, and anti-CXCR5 antibodies for Tfh cell analysis, (2) anti-CD3, anti-CD19, anti-CD95, anti-CD138, and anti-GL7 antibodies for B cell analysis. After blocking with anti-CD16/CD32 antibody, 2 × 10^6 cells were stained in each antibody cocktail. For Tfh cell analysis, after staining with primary antibodies, cells were washed with PBS, and incubated with streptavidin-PE. Cells were then washed and stained with propidium iodide to determine live/dead cells. Data were acquired using MACSQuant Analyzer 10 (Miltenyi Biotec, Germany) and analyzed using FlowJo (version 10.6.1, Becton Dickinson, Ashland, OR).

[7] = Mus musculus, BMDC, read-out: EC50 for IL-6 production in mBMDCs, 2-fold dilution from 5 μM
[8] = Mus musculus, BMDC, read-out: EC50 for IL-12 production in mBMDCs, 2-fold dilution from 5 μM

Cn1c2ccccc2c2nc(SCC(=O)NC3CCCCC3)n(-c3ccccc3)c(=O)c21 [1Z105, N-cyclohexyl-2-((5-methyl-4-oxo-3-phenyl-4,5-dihydro-3H-pyrimido[5,4-b]indol-2-yl)thio)acetamide]
EC50 (mouse TLR4): 7490 nM | toxicity, hTLR4 reporter cells (in words) [1]: minimal | EC50 (mBMDCs [2]; [7]): 630 nM | EC50 (mBMDCs [2]; [8]): 770 nM | toxicity, mTLR4 reporter cells (in words) [3]: minimal

Cn1c2ccc(-c3ccco3)cc2c2nc(SCC(=O)NC3CCCCC3)n(-c3ccccc3)c(=O)c21 [2B182C]
serum anti-HA IgG1 (in words) [4]: significantly increased; also recorded: higher serum anti-HA and anti-NA IgG1 levels compared to 1Z105 | serum anti-NA IgG1 (in words) [4]: significantly increased; also recorded: higher serum anti-HA and anti-NA IgG1 levels compared to 1Z105 | serum anti-NA IgG2a (in words) [4]: enhanced | IL-8 secretion by hPBMCs (in words) (hPBMCs): higher level of IL-8 secretion | EC50 (mouse TLR4): 1650 nM | murine TLR4 agonistic activity (in words) (mouse TLR4): high TLR4 stimulatory potency | murine TLR4 agonistic activity (in words) (mouse TLR4; listed as 8s): potency equivalent to that of compound 2B110 | fold more potent than 1Z105, mTLR4 reporter line (mouse TLR4; ratio of EC50): 4 fold | EC50 (human TLR4; 20 h, 2-fold serial dilutions from 10 μM, NF-κB SEAP, read-out: EC50 on hTLR4 reporter cells): 1660 nM | human TLR4 agonistic activity (in words) (human TLR4): high TLR4 stimulatory potency | human TLR4 agonistic activity (in words) (human TLR4; listed as 8s): potency equivalent to that of compound 2B110 | fold more potent than 1Z105, hTLR4 reporter cells (human TLR4; ratio of EC50): approximately 800 fold | toxicity at 10 µM (in words) [5]: exhibited toxicity | EC50 (mBMDCs [2]; [7]): 160 nM | EC50 (mBMDCs [2]; [8]): 200 nM | EC50 (mBMDCs [2]; read-out: EC50 for IL-6 production in mBMDCs, 2-fold dilution from 5 μM): 120 nM | CD40 expression on mBMDCs (in words) (mBMDCs [6]): significantly higher expression levels | CD86 expression on mBMDCs (in words) (mBMDCs [6]): significantly higher expression levels
